Test results published in US10363239B2, “Method for inhibiting growth of cancer cells” (Pain Therapeutics, Inc., priority 2013, dated 2019).

Legend:
[1] = tested on: MiaPaCa2 cells; experiment: Cell proliferation by cell-cycling markers Ki67 and PCNA (Western blots); assay type: cell-based, human; settings: 0.1-5 nM; 4 days
Protocol: The effect of contact with Compound C0105 on cell proliferation was determined by the levels of cell-cycling markers Ki67 and PCNA using Western blots. Cells treated with vehicle and 0.1-5 nM C0105 for 4 days were collected, washed and solubilized (lysed). The resultant cell lysates were size-fractionated on SDS-PAGE and Western blotting to determine the levels of Ki67, PCNA and actin (loading control). The protein bands were quantified using densitometric scanning. […] N=4. *p<0.01 compared to vehicle (open bars).
To study the effect of Compound C0105 on PI3K activity, the cancer and primary normal cells were cultured to approximately 60-70% confluency, serum deprived for 4 hours, briefly washed with PBS and treated with vehicle or 0.1, 0.5, 1 or 5 nM Compound C0105 for 24 hours with in 0.1% FBS-containing culture medium. […] The cell pellets were sonicated in ice-cold immunoprecipitation buffer and protein concentrations measured by the Bradford method. […]
Immunoreactivity was visualized by reaction in ECL Plus chemiluminescent reagent for exactly 5 minutes, followed by immediate exposure of the blot to X-ray film (Z & Z Medical). Bands at the relevant molecular masses of Ki67 and PCNA were quantified by densitometric scan. Membranes were stripped, washed 5× in 0.1% PBST (2 minutes each) and the actin content analyzed by immunoblotting using monoclonal anti-actin to illustrate even loading.

[2] = tested on: pS2152FLNA, FLNA-associated PTEN and PP2A in glioblastoma cells; experiment: pS2152FLNA and FLNA-associated PTEN and PP2A in anti-FLNA immunoprecipitate (Western blotting); assay type: cell-based, human; settings: 0.1-5 nM; 4 days
Protocol: The effect of Compound C0105 on the levels of pS^2152FLNA and FLNA-associated phosphatases, PTEN and PP2A subclasses was determined in glioblastoma cells. Cells were treated with vehicle and 0.1-5 nM Compound C0105 for 4 days. Cells were washed and solubilized, and the resultant cell lysate was immunoprecipitated with anti-FLNA. The levels of pS^2152FLNA and FLNA-associated phosphatases, PTEN and PP2A subclasses in the anti-FLNA immunoprecipitate were determined by Western blotting. The density of protein bands was quantified by densitometric scan. […] N=4. **p<0.05, *p<0.01 compared to vehicle (open bars). […]
The cell lysates were diluted 5-fold with immunoprecipitation buffer and immunoprecipitated with anti-FLNA, -Akt, -mTOR and -ERK2 as described previously [Talbot et al., J Clin Inv 122(4):1-23 (2012); Wang et al., J Neurosci 32(29):9773-9784 (2012)]. The levels of FLNA linkages, activated phosphorylated Akt (pS^473 and pT^308), phosphorylated mTOR (pS^2448) and phosphorylated ERK2 (pY/pT) were determined in anti-FLNA, -Akt, -mTOR and -ERK2 immunoprecipitates by Western blotting with appropriate antibodies directed against PTEN, PP2A, K-RAS, ras-GAP (FLNA linkages), pS^473Akt, pT^308Akt, pS^2448mTOR and pY/pT ERK2 (activation of Akt, mTOR and ERK2).

[3] = target: T1, FLNA from HPECs (Homo sapiens, UniProt P21333); experiment: Isoelectric focusing of purified FLNA (FLNA conformation); assay type: cell-based; settings: 1 nM; 4 days
T1 construct: FLNA was purified separately from MiaPaCa2 cells and from HPECs; endogenous in cells; host or cells: primary human pancreatic epithelial cells (HPEC)
T1 sequence (P21333 whole entry): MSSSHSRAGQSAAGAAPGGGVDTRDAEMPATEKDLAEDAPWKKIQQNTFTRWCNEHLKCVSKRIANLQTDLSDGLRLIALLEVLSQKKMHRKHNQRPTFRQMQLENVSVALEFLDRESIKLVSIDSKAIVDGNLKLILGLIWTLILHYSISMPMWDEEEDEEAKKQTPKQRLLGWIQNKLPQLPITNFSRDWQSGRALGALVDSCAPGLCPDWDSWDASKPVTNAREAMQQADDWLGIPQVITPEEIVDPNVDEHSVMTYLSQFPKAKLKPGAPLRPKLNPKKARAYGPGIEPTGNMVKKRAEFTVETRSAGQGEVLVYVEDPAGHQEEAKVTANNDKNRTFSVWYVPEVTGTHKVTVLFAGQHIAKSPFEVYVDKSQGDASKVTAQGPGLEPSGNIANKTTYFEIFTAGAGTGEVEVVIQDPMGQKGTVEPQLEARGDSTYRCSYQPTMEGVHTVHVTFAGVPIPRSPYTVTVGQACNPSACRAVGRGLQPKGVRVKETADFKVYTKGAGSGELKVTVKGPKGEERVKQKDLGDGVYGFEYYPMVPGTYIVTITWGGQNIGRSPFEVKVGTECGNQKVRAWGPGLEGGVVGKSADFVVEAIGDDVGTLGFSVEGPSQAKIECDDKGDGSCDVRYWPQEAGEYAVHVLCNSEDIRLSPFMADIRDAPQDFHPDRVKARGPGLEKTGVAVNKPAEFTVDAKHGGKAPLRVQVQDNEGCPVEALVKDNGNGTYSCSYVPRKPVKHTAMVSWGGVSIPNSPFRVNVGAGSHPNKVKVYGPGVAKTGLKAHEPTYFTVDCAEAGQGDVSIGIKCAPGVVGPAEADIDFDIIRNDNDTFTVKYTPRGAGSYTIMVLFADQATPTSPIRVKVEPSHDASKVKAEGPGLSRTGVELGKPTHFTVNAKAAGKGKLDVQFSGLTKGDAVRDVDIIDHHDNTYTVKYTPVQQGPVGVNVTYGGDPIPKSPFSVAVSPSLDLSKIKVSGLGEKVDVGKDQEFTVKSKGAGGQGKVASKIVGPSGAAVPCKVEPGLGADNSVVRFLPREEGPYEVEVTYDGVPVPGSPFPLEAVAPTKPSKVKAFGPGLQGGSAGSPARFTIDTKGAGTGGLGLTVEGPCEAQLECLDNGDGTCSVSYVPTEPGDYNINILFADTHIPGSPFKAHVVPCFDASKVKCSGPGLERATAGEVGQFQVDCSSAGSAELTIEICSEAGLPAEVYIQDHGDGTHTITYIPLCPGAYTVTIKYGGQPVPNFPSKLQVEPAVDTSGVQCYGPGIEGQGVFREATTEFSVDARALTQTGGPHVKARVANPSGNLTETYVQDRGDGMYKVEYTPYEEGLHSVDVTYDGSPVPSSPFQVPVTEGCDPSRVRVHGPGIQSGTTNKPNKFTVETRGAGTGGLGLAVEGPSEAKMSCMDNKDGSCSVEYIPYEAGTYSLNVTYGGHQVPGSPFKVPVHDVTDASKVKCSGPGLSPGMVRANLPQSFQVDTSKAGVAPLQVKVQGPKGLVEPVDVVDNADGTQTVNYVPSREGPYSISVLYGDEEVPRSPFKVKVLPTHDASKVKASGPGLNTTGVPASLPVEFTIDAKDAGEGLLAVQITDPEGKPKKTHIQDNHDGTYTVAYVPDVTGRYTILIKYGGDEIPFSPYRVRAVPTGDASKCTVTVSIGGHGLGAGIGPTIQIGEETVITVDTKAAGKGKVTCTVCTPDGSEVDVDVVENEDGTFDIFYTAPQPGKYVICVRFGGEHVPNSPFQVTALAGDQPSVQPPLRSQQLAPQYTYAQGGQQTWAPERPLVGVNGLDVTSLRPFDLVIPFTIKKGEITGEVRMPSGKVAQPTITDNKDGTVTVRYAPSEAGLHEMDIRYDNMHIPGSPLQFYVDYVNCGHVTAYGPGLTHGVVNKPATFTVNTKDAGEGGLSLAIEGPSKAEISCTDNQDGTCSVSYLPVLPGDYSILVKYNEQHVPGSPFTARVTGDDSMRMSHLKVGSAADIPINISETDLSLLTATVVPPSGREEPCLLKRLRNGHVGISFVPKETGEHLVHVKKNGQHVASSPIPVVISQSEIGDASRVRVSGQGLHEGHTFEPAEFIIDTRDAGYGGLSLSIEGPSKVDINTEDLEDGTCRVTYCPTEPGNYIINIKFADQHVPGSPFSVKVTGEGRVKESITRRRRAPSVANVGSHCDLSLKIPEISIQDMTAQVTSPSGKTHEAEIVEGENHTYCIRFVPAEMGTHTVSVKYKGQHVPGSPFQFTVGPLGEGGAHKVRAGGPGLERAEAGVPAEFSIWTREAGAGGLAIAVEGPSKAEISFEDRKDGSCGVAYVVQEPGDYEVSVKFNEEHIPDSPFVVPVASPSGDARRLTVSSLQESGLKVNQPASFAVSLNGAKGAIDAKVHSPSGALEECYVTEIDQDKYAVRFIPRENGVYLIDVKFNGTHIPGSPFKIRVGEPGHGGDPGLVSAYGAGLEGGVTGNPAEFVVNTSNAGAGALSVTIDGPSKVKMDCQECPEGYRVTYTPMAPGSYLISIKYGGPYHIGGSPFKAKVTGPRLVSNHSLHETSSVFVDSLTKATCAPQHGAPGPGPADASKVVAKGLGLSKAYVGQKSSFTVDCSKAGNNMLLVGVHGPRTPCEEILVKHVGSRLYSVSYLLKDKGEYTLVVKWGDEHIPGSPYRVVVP
Protocol: (§1) FIGS. 33A and 33B show isoelectric focusing result data (FIG. 33A) for FLNA separately isolated from HPEC and MiaPaCa2 cells after four days of incubation (contact) of those cells with medium alone or medium plus 1 nM Compound C0105. […] N=4, *p<0.01.
(§2) To determine whether the conformation of FLNA is different in cancer and primary normal cells and whether Compound C0105 affects FLNA conformation, FLNA was purified from cancer and primary cells after incubation with vehicle or 1 nM Compound C0105 for 4 days. Cells were washed with PBS, scraped, sonicated for 10 seconds and solubilized using 0.5% digitonin/0.2% sodium cholate/0.5% NP-40 at 4° C. with end-over-end rotation for 1 hour. Following centrifugation to remove insoluble debris, the obtained lysate was treated with 1% SDS for 1 minute to dissociate the […] proteins, diluted 10-fold with immunoprecipitation buffer, and immunopurified with immobilized anti-FLNA. The resultant FLNA was eluted using 200 μl antigen-elution buffer (Thermo), neutralized immediately with 100 mM Tris HCl (pH9.0), diluted to 500 μl with 50 mM Tris HCl, pH7.5, and passed through a 100 kD cut-off filter.
(§3) The purified FLNA was suspended in the 100 μl isoelectric focusing sample buffer. […]

[4] = target: T2, FLNA from MiaPaCa2 cells (Homo sapiens, UniProt P21333); experiment: as above; assay type: cell-based; settings: 1 nM; 4 days
T2 construct: FLNA was purified separately from MiaPaCa2 cells and from HPECs; endogenous in cells; host or cells: MiaPaCa2 (MIA PaCa-2, ATCC CRL-1420)
T2 sequence (P21333 whole entry): as above
Protocol: as §1, §2, §3

CN1CCC2(CC1)NCC(=O)N2Cc1ccccc1 [Compound C0105]
Cell proliferation (Ki67 and PCNA levels) [1]: reduces cell proliferation | FLNA-associated PTEN and PP2A levels [2]: increases FLNA-associated PTEN and PP2A levels | pS2152FLNA level [2]: reduces pS^2152FLNA | pI of FLNA [3]: no effect on the pI | Fraction of FLNA restored to the conformation (pI) present in HPECs [4]: about 75%
